Measurements: PMC11814485, “Screening of homing and tissue-penetrating peptides by microdialysis and in vivo phage display” (Life Science Alliance, 2025)

The substances below were run on day 7 skin wound (assay: In vivo playoff of custom-made phage library with microdialysis recovery and HTS in rat skin wound model). Conditions: HTS reads in liver after 1 h circulation and perfusion.
Protocol: We next tested the applicability of the microdialysis-based system for extravascular phage recovery in the rat wound model. In the initial proof-of-concept studies, we used an in vivo “playoff” approach that allows parallel auditioning of the performance of peptide phages in low-complexity mixtures ([Pleiko et al, 2021]). Wound-bearing rats were dosed with a pool of phages displaying peptides known to home to angiogenic vessels and penetrate tissues, CAR (amino acid sequence CARSKNKDC) and iRGD (CRGDKGPDC). The CAR peptide uses a heparan sulfate proteoglycan (syndecan-4)–dependent pathway for the wound homing and penetration ([Järvinen & Ruoslahti, 2007], [2010]; [Maldonado et al, 2023]), whereas iRGD first homes to αv integrins in angiogenic vasculature followed by proteolytic cleavage of the peptide and binging to neuropilin-1, which activates a trans-tissue transport pathway, the CendR pathway ([Sugahara et al, 2009], [2010]; [Teesalu et al, 2009]). […] Peptides lacking tissue-penetrating properties were included as controls. The CRK (CRKDKC) peptide homes to angiogenic blood vessels, but remains bound to the blood vessels ([Järvinen & Ruoslahti, 2007]; [Agemy et al, 2010]). The test pool also included peptide phage clones identified during an in vivo phage display screen for peptides homing to skin wounds but not selected for further analysis at that time ([Järvinen & Ruoslahti, 2007]). As negative controls, we included phages from a naïve peptide phage library that display random peptides.
Microdialysis probes with 3-MDa cutoff were implanted under the center of a day 7 skin wound (peak of angiogenesis) in rats, or under normal skin (Fig S2). Care was taken not to rupture blood vessels during the probe insertion, and a proper probe location was confirmed at the end of the experiment. After insertion, the microdialysis device was run for 45 min to allow the local flow inside the catheter to be established (manufacturer’s recommendation) ([Joukhadar & Müller, 2005]; [Chaurasia et al, 2007]), followed by intravenous injection of the phage cocktail, and sampling of wound and control dialysates for 60 min. Subsequently, the animals were perfused to remove free phages, and wounds and control organs were collected for further analysis. […] No phages (including CAR and iRGD phages) were detected in the dialysates placed in the intact normal skin (Table 1).
The custom-made phage library for the in vivo validation was cloned on T7 415-1 backbone, grown in BL21 E. coli strain, and filter-sterilized. The phages were either cloned as described previously or picked randomly from a phage library ([Järvinen & Ruoslahti, 2007]; [Teesalu et al, 2009]; [Pemmari et al, 2020a]). Each phage clone was sequenced. The custom-made library was made by mixing an equal amount of each phage (titer 5 × 10^9).
(§1) For the in vivo microdialysis, CMA 402 Syringe Pump with Hamilton syringes was used to push and the Harvard P70 peristaltic pump (Harvard Apparatus) to pull the CMA perfusion fluid (CMA Microdialysis AB) and dialysate. Each of the CMA 402 two outputs was connected to the inlet spike of the CMA 12 custom-made 3-MDa probe (CMA Microdialysis AB) via CMA FEP tubing (CMA Microdialysis AB), and the outlet spike of the CMA 12 probe was further connected to Harvard P70 peristaltic pump and further to CMA Probe Shaft Clip (CMA Microdialysis AB) via CMA connector tubing (CMA Microdialysis AB). From the CMA Probe Shaft Clip, the dialysate was pumped into CMA sample tubes (CMA Microdialysis AB). Harvard 0.19-mm-diameter tubing (Harvard Apparatus) and Harvard 3 collar 1.52-mm tubing (Harvard Apparatus) were used with the Harvard P70 peristaltic pump. In addition, CMA tubing adaptors (CMA Microdialysis AB) were used for connecting tubes to syringes and probes. The system was flushed with 70% ethanol before any use.
Male Wistar rats were used for the in vivo validation experiment and the library screen. The rats were 27 wk old and weighed 490 g. […]

Substance | Liver Count
CKSVKNREC [T7 phage clone of the custom-made library] | 108,554
CERESTKIC [T7 phage clone of the custom-made library] | 93,283
CNGSALPVC [T7 phage clone of the custom-made library] | 3,300
CRKDKC [CRKDKC (CRK), T7 phage clone displaying CRK peptide, homes to angiogenic vessels, lacks tissue penetration] | 17,235
CAELNDGLC [T7 phage clone of the custom-made library] | 1,851
CLLGKNNSC [T7 phage clone of the custom-made library] | 785
CARSKNKDC [CARSKNKDC (CAR), T7 phage clone displaying known wound-homing, tissue-penetrating peptide CAR] | 29,894
CRGDKGPDC [CRGDKGPDC (iRGD), T7 phage clone displaying tissue-penetrating homing peptide iRGD] | 8,709

Same assay, conditions: HTS reads in wound tissue after 1 h circulation and perfusion

Substance | Wound without probe Count
CKSVKNREC [T7 phage clone of the custom-made library] | 14,429
CERESTKIC [T7 phage clone of the custom-made library] | 3,133
CNGSALPVC [T7 phage clone of the custom-made library] | 0
CRKDKC [CRKDKC (CRK), T7 phage clone displaying CRK peptide, homes to angiogenic vessels, lacks tissue penetration] | 303
CAELNDGLC [T7 phage clone of the custom-made library] | 1,082
CLLGKNNSC [T7 phage clone of the custom-made library] | 0
CARSKNKDC [CARSKNKDC (CAR), T7 phage clone displaying known wound-homing, tissue-penetrating peptide CAR] | 1,614
CRGDKGPDC [CRGDKGPDC (iRGD), T7 phage clone displaying tissue-penetrating homing peptide iRGD] | 1,172

Same assay, conditions: HTS reads; probe under normal skin, dialysate collected 1 h

Substance | Normal skin microdialysate Count
CKSVKNREC [T7 phage clone of the custom-made library] | 2,473
CERESTKIC [T7 phage clone of the custom-made library] | 0
CNGSALPVC [T7 phage clone of the custom-made library] | 0
CRKDKC [CRKDKC (CRK), T7 phage clone displaying CRK peptide, homes to angiogenic vessels, lacks tissue penetration] | 0
CAELNDGLC [T7 phage clone of the custom-made library] | 0
CLLGKNNSC [T7 phage clone of the custom-made library] | 0
CARSKNKDC [CARSKNKDC (CAR), T7 phage clone displaying known wound-homing, tissue-penetrating peptide CAR] | 0
CRGDKGPDC [CRGDKGPDC (iRGD), T7 phage clone displaying tissue-penetrating homing peptide iRGD] | 0

Same assay, conditions: HTS reads; rat, i.v. tail vein, dialysate collected 1 h, 3-MDa probe under day 7 wound

Substance | Wound microdialysate Count
CKSVKNREC [T7 phage clone of the custom-made library] | 0
CERESTKIC [T7 phage clone of the custom-made library] | 0
CNGSALPVC [T7 phage clone of the custom-made library] | 0
CRKDKC [CRKDKC (CRK), T7 phage clone displaying CRK peptide, homes to angiogenic vessels, lacks tissue penetration] | 0
CAELNDGLC [T7 phage clone of the custom-made library] | 0
CLLGKNNSC [T7 phage clone of the custom-made library] | 0
CARSKNKDC [CARSKNKDC (CAR), T7 phage clone displaying known wound-homing, tissue-penetrating peptide CAR] | 17,713
CRGDKGPDC [CRGDKGPDC (iRGD), T7 phage clone displaying tissue-penetrating homing peptide iRGD] | 984

Same assay, conditions: share of HTS reads in liver after 1 h circulation and perfusion

Substance | Liver %
CKSVKNREC [T7 phage clone of the custom-made library] | 41.18%
CERESTKIC [T7 phage clone of the custom-made library] | 35.39%
CNGSALPVC [T7 phage clone of the custom-made library] | 1.25%
CRKDKC [CRKDKC (CRK), T7 phage clone displaying CRK peptide, homes to angiogenic vessels, lacks tissue penetration] | 6.54%
CAELNDGLC [T7 phage clone of the custom-made library] | 0.70%
CLLGKNNSC [T7 phage clone of the custom-made library] | 0.30%
CARSKNKDC [CARSKNKDC (CAR), T7 phage clone displaying known wound-homing, tissue-penetrating peptide CAR] | 11.34%
CRGDKGPDC [CRGDKGPDC (iRGD), T7 phage clone displaying tissue-penetrating homing peptide iRGD] | 3.30%

Same assay, conditions: share of HTS reads in wound tissue after 1 h circulation and perfusion

Substance | Wound without probe %
CKSVKNREC [T7 phage clone of the custom-made library] | 66.39%
CERESTKIC [T7 phage clone of the custom-made library] | 14.42%
CNGSALPVC [T7 phage clone of the custom-made library] | 0%
CRKDKC [CRKDKC (CRK), T7 phage clone displaying CRK peptide, homes to angiogenic vessels, lacks tissue penetration] | 1.39%
CAELNDGLC [T7 phage clone of the custom-made library] | 4.98%
CLLGKNNSC [T7 phage clone of the custom-made library] | 0%
CARSKNKDC [CARSKNKDC (CAR), T7 phage clone displaying known wound-homing, tissue-penetrating peptide CAR] | 7.43%
CRGDKGPDC [CRGDKGPDC (iRGD), T7 phage clone displaying tissue-penetrating homing peptide iRGD] | 5.39%

Same assay, conditions: share of HTS reads; rat, i.v., dialysate collected 1 h

Substance | Wound microdialysate %
CKSVKNREC [T7 phage clone of the custom-made library] | 0%
CERESTKIC [T7 phage clone of the custom-made library] | 0%
CNGSALPVC [T7 phage clone of the custom-made library] | 0%
CRKDKC [CRKDKC (CRK), T7 phage clone displaying CRK peptide, homes to angiogenic vessels, lacks tissue penetration] | 0%
CAELNDGLC [T7 phage clone of the custom-made library] | 0%
CLLGKNNSC [T7 phage clone of the custom-made library] | 0%
CARSKNKDC [CARSKNKDC (CAR), T7 phage clone displaying known wound-homing, tissue-penetrating peptide CAR] | 94.74%
CRGDKGPDC [CRGDKGPDC (iRGD), T7 phage clone displaying tissue-penetrating homing peptide iRGD] | 5.26%

What follows are substances tested on day 7 skin wounds (assay: In vivo phage display screen of naive CX7C T7 library using microdialysis and HTS). Conditions: HTS of whole wound tissue samples.
Parameters: species or system rat
Excerpt: We next adopted microdialysis-based biopanning to identify new wound-penetrating peptides. We used a CX7^trinucC peptide T7 phage library (diversity 3.9 × 10^8) in which random amino acids are encoded by equally represented trinucleotides to prevent codon bias ([Pleiko et al, 2021]). The library was cloned into the genome of the T7 bacteriophage engineered for longer circulation half-life and reduced liver uptake ([Hodyra-Stefaniak et al, 2019]). For biopanning, 3.9 × 10^10 phages (∼100 copies of each phage clone) displaying the C7X^trinucC library were injected in the tail vein of rats with day 7 skin wounds. Microdialysates were collected from probes placed in wounds or normal skin (Table S1). Most of the phage recovery at the microdialysis probe happened during the first 2 h after library dosing. The wound dialysates yielded almost all phages introduced into the two microdialysis probes, only one phage clone was recovered from normal skin dialysate (Table S1). We observed that most of the peptide phage clones appeared in the microdialysate during the first 2 h after phage dosing (Table S1). To obtain representative tissue biodistribution of phage clones in relation to dialysates, the skin wound–bearing rats with no inserted dialysis probes were dosed with the naïve CX7^trinucC peptide library, followed by 30-min circulation, perfusion, collection of organs, and analysis of peptide landscapes. The two dialysates collected during the first 2 h were subjected to HTS (Table S2). Whole tissue samples from the wound with and without the probe (1 + 5 wounds) at 30 min and 5 h, as well as control samples from 14 different tissues (2 × 14) and from normal skin (1 x with and 2 x without probe), and two serum samples at the time of euthanasia (30 min and 5 h after the library injection) were subjected to HTS. […] However, the wound microdialysates contained 13 enriched peptide sequences (Table 2). […] A BLAST analysis on candidate peptide sequences was used to scan for sequence homologies with proteins related to angiogenesis, endocytosis, and wound healing (Table S3).
The phage library used in the in vivo screen with the microdialysis probe was in the 10-3b T7 backbone (5–15 peptide copies per phage), grown in BLT5403 E. coli strain, CsCl-purified, dialyzed in PBS, and filter-sterilized. The library was constructed via trinucleotide synthesis to prevent bias in the amount of different amino acids ([Kayushin et al, 1996]). The diversity of the library was 1 × 10^9 and the titer 5 × 10^10 per ml.
as §1
Male Wistar rats were used for the in vivo validation experiment and the library screen. The rats were 27 wk old and weighed 490 g. Two full-thickness circular wounds were created on a shaved and disinfected skin with a 12-mm-diameter biopsy punch and scissors under sevoflurane anesthesia (Sevoflurane Baxter, Baxter SA) and carprofen analgesia ([…]; Norocarp, Norbrook Laboratories). […]

Substance | detection in skin wound tissue samples
CKKNEINNC | found in one skin wound sample

Same assay, conditions: wound microdialysate, first 2 h

Substance | Total counts
CYWEDKNLC | 15 counts
CKKNEINNC | 16 counts

Same assay, conditions: wound microdialysate, first hour after library injection, Ion Torrent HTS, rat 7-d-old wound

Substance | First hour (counts)
CYWEDKNLC | 6 counts
CKKNEINNC | 6 counts

Same assay, conditions: wound microdialysate, second hour after library injection, Ion Torrent HTS

Substance | Second hour (counts)
CYWEDKNLC | 9 counts
CKKNEINNC | 10 counts
